Calls of active or inactive are those of the source.
Legend:
HEK293 = test: EBV LMP1 TES2 canonical NF-kB signalling blockers – cell-based, HEK293, luciferase, cherry-pick, dose response (AID 588343); type: functional; conditions: Homo sapiens
[1] = viability of uninfected HEp-2 cells – cell-based, HTS, cytotoxicity control for RSV inhibitor project, dose response (AID 2410); type: functional; conditions: human respiratory syncytial virus
Genome polyprotein = Genome polyprotein (dengue virus type 2, UniProt P29990); test: flavivirus cap methylation enzyme inhibition – biochemical, confirmation dose response, primary screen (AID 588689); type: functional
[2] = target: T1, High affinity choline transporter 1 (Homo sapiens, UniProt Q9GZV3); test: human choline transporter blockers, potency – cell-based, 5-point CRC, membrane potential dye, dose response (AID 504840); type: functional
T1 sequence (Q9GZV3 whole entry): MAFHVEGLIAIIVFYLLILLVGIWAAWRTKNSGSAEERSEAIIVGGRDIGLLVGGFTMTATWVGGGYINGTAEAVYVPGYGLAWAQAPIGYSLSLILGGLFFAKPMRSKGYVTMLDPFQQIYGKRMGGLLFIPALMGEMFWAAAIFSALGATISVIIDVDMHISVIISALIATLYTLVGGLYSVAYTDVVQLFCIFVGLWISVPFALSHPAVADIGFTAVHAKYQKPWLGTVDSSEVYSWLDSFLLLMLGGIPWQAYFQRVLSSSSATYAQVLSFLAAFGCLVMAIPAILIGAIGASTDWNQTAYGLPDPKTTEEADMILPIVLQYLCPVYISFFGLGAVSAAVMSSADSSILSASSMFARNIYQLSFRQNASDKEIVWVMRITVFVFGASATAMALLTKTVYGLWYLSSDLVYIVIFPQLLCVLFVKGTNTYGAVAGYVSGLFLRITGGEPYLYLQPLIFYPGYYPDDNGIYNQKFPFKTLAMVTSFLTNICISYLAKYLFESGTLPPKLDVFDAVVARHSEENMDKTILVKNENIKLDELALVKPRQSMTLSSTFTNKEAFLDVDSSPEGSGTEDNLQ

Leucine aminopeptidase = target: T2, Leucine aminopeptidase (Plasmodium falciparum 3D7, UniProt Q8IL11); test: P. falciparum M17LAP inhibitors, primary screen, biochemical, fluorogenic H-Leu-NHMec substrate, 1536-well (AID 1619); type: functional
T2 sequence (Q8IL11 whole entry): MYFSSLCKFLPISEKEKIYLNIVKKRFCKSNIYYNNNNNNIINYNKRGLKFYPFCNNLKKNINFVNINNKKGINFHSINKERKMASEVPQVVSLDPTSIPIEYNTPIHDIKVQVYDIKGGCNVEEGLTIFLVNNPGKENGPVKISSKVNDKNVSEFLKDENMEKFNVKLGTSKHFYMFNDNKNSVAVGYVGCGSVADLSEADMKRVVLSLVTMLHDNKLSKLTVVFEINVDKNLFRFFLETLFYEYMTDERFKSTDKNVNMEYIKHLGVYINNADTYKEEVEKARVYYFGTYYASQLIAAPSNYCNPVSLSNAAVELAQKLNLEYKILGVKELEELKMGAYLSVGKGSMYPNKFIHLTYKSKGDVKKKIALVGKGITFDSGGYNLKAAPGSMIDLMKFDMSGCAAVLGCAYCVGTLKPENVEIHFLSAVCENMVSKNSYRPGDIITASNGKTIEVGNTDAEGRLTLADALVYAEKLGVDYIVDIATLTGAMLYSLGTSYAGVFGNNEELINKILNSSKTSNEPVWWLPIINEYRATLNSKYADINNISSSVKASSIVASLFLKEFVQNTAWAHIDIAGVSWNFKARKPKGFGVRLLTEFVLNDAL

[3] = Luminescence Cell-Based Dose Confirmation HTS to Identify Activators of 5'UTR Stem-Loop Driven Alpha-Synuclein mRNA Translation in H4 Neuroglioblastoma Cells. [Related pubchem assays: 1829 (Project Summary), 1814 (Primary HTS)]; type: functional
[4] = Luminescence Cell-Based Dose Response HTS to Identify Activators of Luciferase Translation or Activity in H4 […] Cells. [Related pubchem assays: 1829 (Project Summary), 1814 (Primary HTS)]; type: functional
H4 = test: Luminescence Cell-Based Dose Response HTS to Identify Activators of 5'UTR Stem-Loop Driven Prion Protein mRNA Translation in H4 Neuroglioblastoma Cells. [Related pubchem assays: 1829 (Project Summary), 1814 (Primary HTS)]; type: functional; conditions: Homo sapiens
Cytochrome P450 1A2 = target: T3, Cytochrome P450 1A2 (Homo sapiens, UniProt P05177);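 further: PubChem cytochrome P450 panel assay, CYP1A2 panel member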
T3 sequence (P05177 whole entry): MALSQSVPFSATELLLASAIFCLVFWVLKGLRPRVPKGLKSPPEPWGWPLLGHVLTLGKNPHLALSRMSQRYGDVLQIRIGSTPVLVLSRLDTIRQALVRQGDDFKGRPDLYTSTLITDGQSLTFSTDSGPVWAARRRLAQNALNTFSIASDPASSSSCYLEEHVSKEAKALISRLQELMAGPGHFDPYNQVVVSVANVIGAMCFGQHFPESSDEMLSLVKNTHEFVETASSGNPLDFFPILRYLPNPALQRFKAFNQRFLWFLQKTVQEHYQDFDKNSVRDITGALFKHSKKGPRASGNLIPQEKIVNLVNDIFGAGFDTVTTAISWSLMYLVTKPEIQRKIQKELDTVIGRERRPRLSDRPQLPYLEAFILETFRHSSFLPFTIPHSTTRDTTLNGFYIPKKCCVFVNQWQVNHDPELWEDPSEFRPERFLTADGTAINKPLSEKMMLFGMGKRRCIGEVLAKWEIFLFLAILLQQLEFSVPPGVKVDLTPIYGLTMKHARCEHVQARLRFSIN

Cytochrome P450 2C9 = Cytochrome P450 2C9 (Homo sapiens, UniProt P11712)
cells = type: functional
[5] = target: T4, Corticotropin-releasing factor receptor 2/Corticotropin-releasing factor-binding protein (Homo sapiens, UniProt P24387+Q13324); test: activators of CRF receptor 2 with binding protein – uHTS hits, confirmation (AID 602473); type: functional; conditions: read-out: EC50_Mean
T4 sequence (Q13324 whole entry): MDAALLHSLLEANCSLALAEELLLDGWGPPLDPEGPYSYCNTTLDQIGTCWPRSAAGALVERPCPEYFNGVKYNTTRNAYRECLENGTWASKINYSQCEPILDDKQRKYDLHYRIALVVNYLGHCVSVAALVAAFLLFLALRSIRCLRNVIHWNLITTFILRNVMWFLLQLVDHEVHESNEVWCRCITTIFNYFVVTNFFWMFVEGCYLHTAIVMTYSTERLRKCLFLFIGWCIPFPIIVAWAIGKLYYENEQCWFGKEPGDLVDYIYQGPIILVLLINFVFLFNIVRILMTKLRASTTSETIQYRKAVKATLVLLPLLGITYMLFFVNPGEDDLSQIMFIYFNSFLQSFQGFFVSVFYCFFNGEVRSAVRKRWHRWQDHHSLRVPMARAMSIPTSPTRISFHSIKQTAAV
T4 sequence (P24387 whole entry): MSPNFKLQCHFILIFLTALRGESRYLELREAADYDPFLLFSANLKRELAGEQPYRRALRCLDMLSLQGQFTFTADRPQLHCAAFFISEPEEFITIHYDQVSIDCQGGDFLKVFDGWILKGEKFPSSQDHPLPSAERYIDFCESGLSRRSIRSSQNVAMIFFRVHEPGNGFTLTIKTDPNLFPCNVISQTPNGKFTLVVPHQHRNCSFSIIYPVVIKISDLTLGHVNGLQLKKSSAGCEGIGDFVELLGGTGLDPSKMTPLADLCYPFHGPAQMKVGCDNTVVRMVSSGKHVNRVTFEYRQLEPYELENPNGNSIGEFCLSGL

Chain of Cytochrome P450 2C9 (P11712 whole entry): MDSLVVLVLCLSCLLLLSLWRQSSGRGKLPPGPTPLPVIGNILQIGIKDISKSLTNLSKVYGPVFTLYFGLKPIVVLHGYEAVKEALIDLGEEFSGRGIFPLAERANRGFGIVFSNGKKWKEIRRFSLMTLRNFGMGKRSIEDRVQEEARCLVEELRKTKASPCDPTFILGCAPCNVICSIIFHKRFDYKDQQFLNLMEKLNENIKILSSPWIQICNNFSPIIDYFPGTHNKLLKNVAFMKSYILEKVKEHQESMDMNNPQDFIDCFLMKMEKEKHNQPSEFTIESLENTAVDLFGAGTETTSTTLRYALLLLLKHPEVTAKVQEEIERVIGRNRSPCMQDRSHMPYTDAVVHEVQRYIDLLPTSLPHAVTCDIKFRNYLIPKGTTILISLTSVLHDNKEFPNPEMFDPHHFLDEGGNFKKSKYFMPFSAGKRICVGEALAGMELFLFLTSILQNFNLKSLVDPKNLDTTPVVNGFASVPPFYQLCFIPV
Chain of Genome polyprotein (P29990 2492-3391 limits assumed): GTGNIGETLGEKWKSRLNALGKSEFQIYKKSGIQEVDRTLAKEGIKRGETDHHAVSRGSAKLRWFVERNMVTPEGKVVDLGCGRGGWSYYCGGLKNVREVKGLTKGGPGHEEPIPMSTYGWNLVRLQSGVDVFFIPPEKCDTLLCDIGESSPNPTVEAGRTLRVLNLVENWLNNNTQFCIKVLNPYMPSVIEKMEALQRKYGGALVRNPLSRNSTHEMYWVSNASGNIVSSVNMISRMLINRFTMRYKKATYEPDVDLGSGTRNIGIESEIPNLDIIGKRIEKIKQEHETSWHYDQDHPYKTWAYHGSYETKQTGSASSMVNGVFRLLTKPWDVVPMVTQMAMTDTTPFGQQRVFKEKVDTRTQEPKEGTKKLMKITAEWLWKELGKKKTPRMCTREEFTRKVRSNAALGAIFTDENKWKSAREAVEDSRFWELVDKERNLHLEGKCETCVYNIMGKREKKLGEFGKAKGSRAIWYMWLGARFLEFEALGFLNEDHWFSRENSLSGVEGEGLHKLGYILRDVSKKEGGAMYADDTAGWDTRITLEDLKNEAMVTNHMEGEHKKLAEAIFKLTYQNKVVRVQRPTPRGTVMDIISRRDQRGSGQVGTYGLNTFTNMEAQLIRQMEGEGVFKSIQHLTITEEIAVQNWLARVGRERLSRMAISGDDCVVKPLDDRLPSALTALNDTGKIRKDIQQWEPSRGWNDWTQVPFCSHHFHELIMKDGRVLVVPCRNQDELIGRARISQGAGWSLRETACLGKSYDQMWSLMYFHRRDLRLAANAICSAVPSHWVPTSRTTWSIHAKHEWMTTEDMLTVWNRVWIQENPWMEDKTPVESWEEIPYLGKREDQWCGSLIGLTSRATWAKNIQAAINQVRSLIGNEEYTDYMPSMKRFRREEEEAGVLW

## COc1ccc(NC(=O)c2ccc(-c3ccccc3)cc2)cc1S(=O)(=O)N1CCOCC1
HEK293
  AC50: 0.698 µM (active)

## Cc1cccc(NC(=O)c2cc(NC(=O)C3CCCCC3C(=O)O)ccc2N2CCCCC2)c1 (stereo not given)
[1]
  CC50: 15.7 µM (active)
Genome polyprotein
  IC50: 37.7 µM (active)

## O=C(c1c(O)c2ccccc2oc1=O)C1CCCCC1
[2]
  IC50: 10 µM (active)

## CCOc1ccc(NC(=O)CSc2nnc[nH]2)c([N+](=O)[O-])c1
Leucine aminopeptidase
  IC50: 5.46 µM (active)

## COc1ccc(C2(C(=O)Nc3ccc(S(=O)(=O)Nc4nc(C)cc(C)n4)cc3)CCCC2)cc1OC
[2]
  IC50: 12.3 µM (active)

## O=C(NCC(=O)N1CCCC1C(=O)O)OC1CCCCC1 (stereo not given)
Leucine aminopeptidase
  IC50: 39 µM (active)

## O=C(CN1C(=O)C2C3C=CC(C3)C2C1=O)Nc1ccc2c(c1)OCCO2 (stereo not given)
Leucine aminopeptidase
  IC50: 21 µM (active)
[3]
  EC50: 15.1 µM (active)
[4]
  EC50: 22.4 µM (active)
H4
  EC50: 19 µM (active)
Cytochrome P450 1A2
  AC50: 15.8 µM (inconclusive)
Cytochrome P450 2C9
  AC50: 0.316 µM (inconclusive)

## c1ccc(CN2CCN(c3nc4ccccc4n4cnnc34)CC2)cc1
[2]
  IC50: 1.82 µM (active)

## COc1cc(OC)c2c(OC)cccc2n1
cells
  IC50: 30.1 µM (active)

## CCOC(=O)c1oc2nc(CC(C)C)c3c(c2c1N)CCCC3
[2]
  IC50: 12.9 µM (active)

## Cc1cccc(C(=O)NC(=S)NNC(=O)COc2c(C)cccc2C)c1
Leucine aminopeptidase
  IC50: 59.1 µM (active)
[5]
  EC50: 1.65 µM (active)

## O=C(c1cn[nH]c1)c1cc(F)ccc1O
Leucine aminopeptidase
  IC50: 20.9 µM (active)

## CCCOC(=O)c1ccc(NC(=O)c2ccc(Br)o2)cc1
cells
  IC50: 30.5 µM (active)
